Assays:
[1] = Protein-binding rate of aluminum in rat plasma by ultrafiltration, with citric acid added; format: in vitro ADME; conditions: aluminum 50 μg/L, citric acid final concentration raised by 3 mg/dL, 37° C. 60 minutes, no citric acid: 23.4±10.0%
Description: Whether aluminum combined to proteins chelates with citric acid and is dissociated from the proteins in rat plasma was examined.
A used indicator was the protein-binding rates (by ultrafiltration method) when citric acid was added and when not added.
Aluminum was added to rat blood plasma to make the concentration 50 μg/L, and citric acid was added there to make the final concentration rise by 3 mg/dL. Then, it was incubated at 37° C. for 60 minutes. After that, the solution was centrifuged in a centrifuge (Centrifree) to obtain about 100 μL of filtrate. The aluminum concentrations of the added sample, the supernatant and the filtrate were measured respectively by the HPLC method (Chromatoracer Al; SHINO-TEST Corp.) to calculate the protein-binding rates.

[2] = Citric acid concentration in patient blood plasma during dialysis with citric acid-containing dialysate; format: in vivo, human; conditions: 1.7 mEq/L of citric acid added to a dialysate during a dialysis treatment
Description: The present invention provides a dialysate comprising aluminum complexing agents. Preferably, the aluminum complexing agent is citric acid. […] Meanwhile, it had been confirmed that, when 1.7 mEq/L of citric acid had been added to a dialysate during a dialysis treatment, the citric acid concentration in the patient blood plasma had risen by about 3 mg/dL. In the following examples, how this phenomenon effects on the aluminum kinetics in vivo was examined.

[3] = Elimination of aluminum accumulated in rat thigh bones by repeated intravenous citric acid; format: in vivo; conditions: aluminum-loaded male rats, 0.75% citric acid solution i.v. 4 hours, three times a week for 4 weeks
Description: After aluminum accumulations were made in rat tissues, citric acid as an aluminum complexing agent was administered intravenously repeatedly to examine whether citric acid would eliminate the aluminum accumulated in the tissues.
Aluminum was administered to male rats intraperitoneally repeatedly once a day for 6 weeks at 2 mg/kg. Then, the rats were cannulated in the jugular vein.
From the jugular cannula, 0.75% citric acid solution was administered repeatedly taking the same dialysis time and frequency as in human; that is, for 4 hours continuously intravenously three times a week for 4 weeks.
For the control group, physiological saline was administered in the same means. Each group had 4 to 6 rats.
After the 4-week administration, thigh bones were collected from the rats to compare the aluminum levels in the thigh bones of both groups using the ratios of the aluminum peak area analyzed by the HPLC method against the peak area of internal standard substance as an indicator.

free-aluminum percentage [1]: 35.5±0.4% | rise of citric acid concentration in patient blood plasma [2]: about 3 mg/dL
Structure (SMILES): O=C(O)CC(O)(CC(=O)O)C(=O)O [citric acid]
thighbone aluminum levels compared with control group ([3]; P<0.05 Student's t-test): statistically significantly lower | thigh bone aluminum level: ratio of aluminum peak area (HPLC) against peak area of internal standard ([3]; saline control 4.46±0.52, mean±S.D.): 3.62±0.27

From patent US20090023806A1, “ALUMINUM-STORAGE DISEASE IMPROVING AGENT” (AJINOMOTO CO. INC, priority 2006, published 2009)
